Measurements published in patent US7371524B2, “Substituted azaporphyrins as fluorescence labels” (priority 2003, dated 2008).

Legend:
Assay type in all cases: physicochemical
[1] = Fluorescence intensity and polarization of free dye in buffers and glycerol (solvent sensitivity); conditions: for Fluorescence Intensity (I), BBS / Polarization (mp), BBS: borate buffered saline pH 8.0; for Fluorescence Intensity (I), TDx Buffer: intensities comparable only horizontally; for solvent sensitivity of fluorescence intensity: buffer, buffer plus serum, glycerol
From the text: The performance of a fluorophore (fluorescent moiety) can be partly assessed by measurements on the free dye i.e., not in a complete fluorescent probe. Meaningful parameters in this kind of test include fluorescence intensity and polarization/anisotropy which usually are altered when the fluorophore is exposed to different ionic strengths, specific ions or biomolecules such as are present in blood serum. These effects may be thought of as “solvent effects” and may be produced either by changes in the interactions between molecules of the fluorophore to change the state of aggregation or between fluorophore molecules and the components of the solvent (nonspecific binding, NSB).
In Table 1 the performance of any one dye can be judged by the changes in fluorescence intensity (I), and/or the changes in polarization (mp, milli-polarization units) as one proceeds horizontally across the table. The “perfect” fluorescence label would have the same values for each of these parameters regardless of the solvent composition.
Abbreviations: mp: […]; TDx Buffer: Commercial buffer used in fluorescence polarization assays; Pc: phthalocyanine; BBS: Borate buffered saline (0.25 M NaCl, 0.0232 M boric acid and 0.00179 M sodium tetraborate. The pH is finally adjusted to 8.0+/−0.05 with 1M NaOH). When serum was tested, 25 μl of whole serum was added to 1 ml of BBS (containing 25 μl of the dye already added). Note that the relative concentrations of the various fluorophores is not known so that comparisons of fluorescence intensities are meaningful only when proceeding in a horizontal direction. An alternative to BBS for manipulating LJB-3 in aqueous solutions is borate buffered KCl (BBKCl) which is made by mixing 33.1 ml of 0.70 M boric acid, 4.0 ml of 0.50 M K2B4O7, 75 ml of 4.0 M KCl and water to make 1 liter: pH ca. 8.1.
Fluorescence measurements: These were made in a transient state polarization fluorometer (FAST-1, Hyperion, Inc. Miami, Fla.)

[2] = Near infrared absorbance of dye
[3] = Passage through membranes and gel permeation chromatography (micelle formation); conditions: PEG dye at 10^−4 M and above
From the text: In addition, an advantage emerges in that micelle formation by the PEG is absent. […] Also, the dye moves in the void volume in gel permeation chromatography designed to separate macromolecules from small molecules.

| sensitivity to ionic strength [1] | Fluorescence Intensity (I), BBS [1] | Polarization (mp), BBS [1] [mp] | Fluorescence Intensity (I), Glycerol [1] | Polarization (mp), Glycerol [1] [mp] | Polarization (mp), TDx Buffer [1] | Fluorescence Intensity (I), TDx Buffer [1] | near infrared absorbance maximum [2] [nm] | Substance | solvent sensitivity of fluorescence intensity [1] | behaviour on membranes (30K daltons) and in gel permeation chromatography [3] |
| --- | --- | --- | --- | --- | --- | --- | --- | --- | --- | --- |
| strong sensitivity to ionic strength | 520 | 3.4 | 3155 | 236 | 1.7 mp | 1108 |  | Hydroxyaluminumphthalocyaninetrisulfonate [Al Pc trisulfonate, reference compound] | very solvent-sensitive |  |
|  | 1078 | 2.4 | 454 | 105 | 6.7 mp | 1069 |  | DiphosphatoSidicarboxyphthalocyanine |  |  |
|  | 741 | 2.0 | 1351 | 199 | −.03 mp | 1230 | 679 | dihydroxy dicarboxy silicon phthalocyanine sulfonate [LJB-3] | almost the same fluorescence output in buffer, buffer plus serum or glycerol alone | behaves as expected for a molecule of its formula weight |
|  |  |  |  |  |  |  |  | Bis-hydroxy (2,3Dicarboxyphthalocyanino) Silicon IV | less sensitive to serum and solvent than is the Al compound |  |
